Source: publication PMC11808397, “Development of selective nanomolar cyclic peptide ligands as GBA1 enzyme stabilisers” (RSC Chemical Biology, 2025)
Positions of bridges follow the written chain, without caps; N, C: chain ends. Non-standard residues stand in square brackets, D forms with d. Residues, ends and D or L forms follow the SMILES beside them.

Key:
[1] = target: T1, recombinant human GBA1 (rhGBA1, Cerezyme) (Homo sapiens, UniProt P04062, R534H); assay: In vitro rhGBA1 inhibition, 4-MU-β-D-glucopyranoside hydrolysis; type: biochemical; settings: Cerezyme 14 nM, 3.7 mM 4-MU-β-D-glucopyranoside, McIlvaine pH 5.2, 30 min pre-incubation 37 °C + 30 min, mean ± SD from 3 technical triplicates
T1 construct: purchased Cerezyme
T1 sequence (P04062 40-536 R534H): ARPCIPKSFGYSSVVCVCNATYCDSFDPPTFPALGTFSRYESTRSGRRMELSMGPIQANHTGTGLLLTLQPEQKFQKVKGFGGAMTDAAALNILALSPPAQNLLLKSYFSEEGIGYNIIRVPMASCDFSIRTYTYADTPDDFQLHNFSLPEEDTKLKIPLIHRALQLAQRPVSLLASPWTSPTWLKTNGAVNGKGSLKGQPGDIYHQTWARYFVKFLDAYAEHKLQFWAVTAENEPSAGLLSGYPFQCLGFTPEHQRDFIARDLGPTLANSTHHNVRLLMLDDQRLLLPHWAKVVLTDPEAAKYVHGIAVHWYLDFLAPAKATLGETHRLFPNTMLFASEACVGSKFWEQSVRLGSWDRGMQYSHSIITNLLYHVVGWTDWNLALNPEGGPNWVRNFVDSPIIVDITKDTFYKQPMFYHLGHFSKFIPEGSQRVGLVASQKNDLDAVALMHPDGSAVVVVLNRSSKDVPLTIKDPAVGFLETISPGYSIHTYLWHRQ
Method: (§1) Based on the pull-down validation, a set of eight cyclic peptides (L1, L2, L4, L6, D1, D8, D12 and D13) were identified, synthesized, and evaluated for their inhibitory potency against recombinant human GBA1 (rhGBA1, Cerezyme®) and their selectivity over human β-glucosidases GBA2 and GBA3. Half-maximum inhibitory concentration (IC50) values for β-glucosidases were determined in vitro by measuring hydrolysis of 4-methylumbelliferyl-β-D-glucopyranoside (4-MU-β-D-Glu) fluorogenic substrate. […]
Pure product fractions were pooled, lyophilized, and dissolved again in DMSO before concentration was determined by A280 using a sample diluted in phosphate buffer at pH 7.4 and extinction coefficients determined from the sequence using the Expasy ProtParam online tool (https://web.expasy.org/protparam/). […]
2.5. In vitro IC50 and Ki measurements
For GBA1, IC50 values were determined using the recombinant human GBA1 (rhGBA1, Cerezyme) following described procedures.4 Enzyme activity was measured using 3.7 mM 4-methylumbeliferone (4MU)-β-D-glucopyranoside in 150 mM McIlvaine buffer pH 5.2 supplemented with 0.1% bovine serum albumin (BSA) (w/v), 0.1% Triton X-100 (v/v), and 0.2% sodium taurocholate (w/v). Varying concentrations of inhibitor (12.5 µL) were incubated with 12.5 µL of enzyme (final concentration 14 nM) at 37 °C for 30 min. Following this, 100 µL of 4MU substrate was added and the samples were again incubated at 37 °C for 30 min. The reaction was quenched using excess 1 M NaOH-glycine (200 µL, pH 10.3) and 4MU fluorescence was measured using a LS55 fluorimeter (λEx 366 nm and λEm 445 […]
30 min at 37 °C (12.5 µL) and subsequently incubated with the tested ligands at a range of concentrations for 30 min at 37 °C (12.5 µL), after which 100 µL 4MU-β-D-glucopyranoside was added for a final incubation of 30 min at 37 °C, quenched with 200 µL 1 M NaOH-glycine (pH 10.3) and fluorescence was measured. IC50 values were calculated using GraphPad Prism version 8.

GBA2 = target: T2, GBA2 (Homo sapiens, UniProt Q9HCG7); assay: GBA2 inhibition in overexpressing HEK293T lysates; type: biochemical; settings: McIlvaine pH 5.8, 4-MU substrate
T2 construct: expressed in transfected cells
T2 sequence (Q9HCG7 1-927): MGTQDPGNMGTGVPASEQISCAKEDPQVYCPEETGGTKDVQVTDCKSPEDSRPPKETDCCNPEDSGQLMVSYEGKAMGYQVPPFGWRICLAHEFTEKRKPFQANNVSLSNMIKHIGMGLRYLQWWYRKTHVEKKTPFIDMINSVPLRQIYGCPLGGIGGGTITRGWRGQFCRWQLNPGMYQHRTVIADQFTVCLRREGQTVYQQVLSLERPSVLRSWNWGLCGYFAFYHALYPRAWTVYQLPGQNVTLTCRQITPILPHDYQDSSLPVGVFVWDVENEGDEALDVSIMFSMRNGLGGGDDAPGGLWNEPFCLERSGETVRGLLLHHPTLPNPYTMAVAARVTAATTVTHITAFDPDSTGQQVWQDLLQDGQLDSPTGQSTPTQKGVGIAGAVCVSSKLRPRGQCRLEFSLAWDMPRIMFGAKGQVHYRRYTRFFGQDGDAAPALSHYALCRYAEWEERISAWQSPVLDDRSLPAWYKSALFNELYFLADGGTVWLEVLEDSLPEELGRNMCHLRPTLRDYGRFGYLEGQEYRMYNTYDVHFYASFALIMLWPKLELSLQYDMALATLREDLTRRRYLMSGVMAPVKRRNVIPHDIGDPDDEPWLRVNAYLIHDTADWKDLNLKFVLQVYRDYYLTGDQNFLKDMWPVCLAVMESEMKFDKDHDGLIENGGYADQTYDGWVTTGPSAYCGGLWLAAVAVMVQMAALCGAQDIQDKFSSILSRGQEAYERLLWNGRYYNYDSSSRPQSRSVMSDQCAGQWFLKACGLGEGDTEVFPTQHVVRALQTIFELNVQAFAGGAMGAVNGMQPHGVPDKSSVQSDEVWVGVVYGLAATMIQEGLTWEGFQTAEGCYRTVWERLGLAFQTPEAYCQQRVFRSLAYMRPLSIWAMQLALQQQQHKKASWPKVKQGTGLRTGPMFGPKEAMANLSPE
Method: as §1
2.5. In vitro IC50 and Ki measurements […]
nM) at 37 °C for 30 min. Following this, 100 µL of 4MU substrate was added and the samples were again incubated at 37 °C for 30 min. The reaction was quenched using excess 1 M NaOH-glycine (200 µL, pH 10.3) and 4MU fluorescence was measured using a LS55 fluorimeter (λEx 366 nm and λEm 445 […]
GBA2 and GBA3 IC50 values were determined following a similar protocol,5 using stable GBA2 or GBA3 HEK293T over-expression cell lysates and McIlvaine buffer pH 5.8 with 0.1 % BSA (w/v) and 100 mM HEPES with 0.1 % BSA, respectively. Covalent inhibitor of endogenous GBA1 (1 µM Bodipy green-cyclophellitol β-epoxide activity based probe) was added for both GBA2 and GBA3 assays, and GBA2 inhibitor N-(5-adamantane-1-yl-methoxy-pentyl)-deoxynojirimycin, AMP-DNM at 1 nM) was added for GBA3 assay. Cell lysates were pre-incubated with the aforementioned GBA1/GBA2 inhibitors for 30 min at 37 °C (12.5 µL) and subsequently incubated with the tested ligands at a range of concentrations for 30 min at 37 °C (12.5 µL), after which 100 µL 4MU-β-D-glucopyranoside was added for a final incubation of 30 min at 37 °C, quenched with 200 µL 1 M NaOH-glycine (pH 10.3) and fluorescence was measured. IC50 values were calculated using GraphPad Prism version 8.

RAW 264.7 cells = assay: In situ competitive activity-based protein profiling (cABPP); type: cell-based; settings: 0-100 μM for 4 hours, then JJB75 10 nM for 2 hours, fluorescence SDS-gel scanning
Method: We further investigated GBA1 inhibition in cells. Human dermal fibroblasts were initially incubated with peptide concentrations ranging from 0.1 μM (from 0.001 μM for L4, D1 and D12) to 100 μM of each cyclic peptide for 3 hours. […] To further confirm the inability of these peptides to cross the cell membrane, we conducted in situ competitive activity-based protein profiling (cABPP) experiments using RAW 264.7 monocyte/macrophage-like cells. […]
Figure S6. […] Cells were washed, lysed and analysed by fluorescent readout. […]
Human fibroblasts (Cambrex-Lonza CC-2511) were cultured in complete DMEM/F12 growth medium supplemented with 10% (v/v) foetal calf serum and 0.1 % (w/v) penicillin/streptomycin at 37 °C and 5% CO2. […] GlcCer and GlcSph lipids were quantified as described below. In parallel, enzyme activity in cell lysates was measured using 3.7 mM 4-methylumbeliferone (4MU)-β-D-glucopyranoside in 150 mM McIlvaine buffer pH 5.2 supplemented with 0.1% bovine serum albumin (BSA) (w/v), 0.1% Triton X-100 (v/v), and 0.2% sodium taurocholate (w/v) as described above (see Table S1). […]
Cells were kept on ice and equal protein amounts were loaded per well on a 10% SDS-PAGE gel. Gels were scanned for fluorescence and then stained with Coomassie Brilliant Blue for loading control. […]
Levels of GlcCer and GlcSph were determined with a modified acidic Bligh & Dyer extraction (Figure 2 […]

| rhGBA1 IC50 [1] | IC50 ([1]; SD) | IC50 (GBA2) | SMILES | competition with ABP JJB75 (cell permeability) (RAW 264.7 cells) |
| --- | --- | --- | --- | --- |
| high micromolar range | 26.4 ± 3.31 µM | > 100 µM | CC[C@H](C)[C@@H]1NC(=O)[C@H](CC(C)C)NC(=O)[C@H](Cc2ccc(O)cc2)NC(=O)[C@H](C)NC(=O)[C@H](CCC(N)=O)NC(=O)[C@H](CO)NC(=O)[C@H](CCCCN)NC(=O)[C@H]([C@@H](C)O)NC(=O)[C@H](Cc2c[nH]c3ccccc23)NC(=O)[C@H]([C@@H](C)O)NC(=O)[C@H]([C@@H](C)CC)NC(=O)[C@H](C(C)C)NC(=O)[C@H](CCC(N)=O)NC(=O)[C@@H](Cc2ccc(O)cc2)NC(=O)CSC[C@@H](C(N)=O)NC(=O)[C@H](CCC(N)=O)NC1=O [D13] ({CH2CO}-[dY]QVITWTKSQAYLIQC-NH2; thioether N-16) |  |
|  |  |  | CC1=CC(C)=[N+]2C1=C(CCCCc1cn(C[C@@H]3[C@@H](O)[C@H](O)[C@@H](O)[C@@H]4O[C@H]34)nn1)c1c(C)cc(C)n1[B-]2(F)F [MDW933] | did show competition |
